Experimental data reported in patent US12281122B1, “PI3K inhibitors” (Cogent Biosciences, Inc., priority 2023, dated 2025).

Columns and labels:
[1] = test system: T47D (PI3Kα-H1047R) cell line; assay: HTRF phospho-AKT(S473) cell assay in T47D cells; assay type: cell-based, human; settings: Homo sapiens; HTRF phospho-AKT(S473), T47D (PI3Kα-H1047R) cells, 2 hours compound incubation
Summary of the method: (§1)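 HTRF read-out of phospho-AKT(S473) in lysates gave IC50 values after 2 h compound exposure at 37° C. Dose series was 12 points at 1:3, topping at 5 μM for T47D and 10 μM for SKBR3. Only SKBR3 received 70 ng/ml PDGF-BB during the last 15 minutes.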

[2] = test system: SKBR3 (PI3Kα-Wild Type) cell line; assay: HTRF phospho-AKT(S473) cell assay in SKBR3 cells; assay type: cell-based, human; settings: Homo sapiens, SK-BR-3; HTRF phospho-AKT(S473), SKBR3 (PI3Kα-Wild Type) cells, 2 hours compound incubation, PDGF-BB stimulated
Summary of the method: as §1

Structure (SMILES)	IC50 [1]	IC50 [2]
Cc1cc([C@@H](C)Nc2ccc(Cl)nc2C(=O)NS(C)(=O)=O)c2nc(N3CCC(n4nncc4C)CC3)n(C)c(=O)c2c1 [Compound 626, (R)-6-chloro-3-((1-(3,6-dimethyl-2-(4-(5-methyl-1H-1,2,3-triazol-1-yl)piperidin-1-yl)-4-oxo-3,4-dihydroquinazolin-8-yl)ethyl)amino)-N-(methylsulfonyl) picolinamide]	0.25 to 0.5 µM	1 to 5 µM
Cc1cc([C@@H](C)Nc2ccc(Cl)nc2C(=O)NS(C)(=O)=O)c2nc(N3CCc4nn(C(F)F)cc4C3)n(C)c(=O)c2c1 [Compound 627, (R)-6-chloro-3-((1-(2-(2-(difluoromethyl)-2,4,6,7-tetrahydro-5H-pyrazolo[4,3-c]pyridin-5-yl)-3,6-dimethyl-4-oxo-3,4-dihydroquinazolin-8-yl)ethyl)amino)-N-(methylsulfonyl) picolinamide]	< 0.25 µM	1 to 5 µM
Cc1cc([C@@H](C)Nc2ccc(Cl)nc2C(=O)NS(C)(=O)=O)c2nc(N3CCC(c4nnc(C5CCC5)o4)CC3)n(C)c(=O)c2c1 [Compound 629, (R)-6-chloro-3-((1-(2-(4-(5-cyclobutyl-1,3,4-oxadiazol-2-yl)piperidin-1-yl)-3,6-dimethyl-4-oxo-3,4-dihydroquinazolin-8-yl)ethyl)amino)-N-(methylsulfonyl) picolinamide]	< 0.25 µM	1 to 5 µM
Cc1cc([C@@H](C)Nc2ccc(Cl)nc2C(=O)NS(C)(=O)=O)c2nc(N3CCC(c4ncc(C(F)(F)F)cn4)CC3)n(C)c(=O)c2c1 [Compound 630, (R)-6-chloro-3-((1-(3,6-dimethyl-4-oxo-2-(4-(5-(trifluoromethyl)pyrimidin-2-yl)piperidin-1-yl)-3,4-dihydroquinazolin-8-yl)ethyl)amino)-N-(methylsulfonyl) picolinamide]	0.5 to 1 µM	≥ 5 µM
Cc1cc([C@@H](C)Nc2ccc(Cl)nc2C(=O)NS(C)(=O)=O)c2nc(N3CC[C@H](Oc4cnc(C)cn4)C3)n(C)c(=O)c2c1 [Compound 631, 6-chloro-3-(((R)-1-(3,6-dimethyl-2-((S)-3-((5-methylpyrazin-2-yl)oxy)pyrrolidin-1-yl)-4-oxo-3,4-dihydroquinazolin-8-yl)ethyl)amino)-N-(methylsulfonyl) picolinamide]	< 0.25 µM	1 to 5 µM
Cc1cc([C@@H](C)Nc2ccc(Cl)nc2C(=O)NS(C)(=O)=O)c2nc(N3C[C@@H]4[C@H](C3)[C@H]4n3ncc(F)c3C)n(C)c(=O)c2c1 [Compound 632, 6-chloro-3-(((R)-1-(2-((1R,5S,6S)-6-(4-fluoro-5-methyl-1H-pyrazol-1-yl)-3-azabicyclo[3.1.0]hexan-3-yl)-3,6-dimethyl-4-oxo-3,4-dihydroquinazolin-8-yl)ethyl)amino)-N-(methylsulfonyl) picolinamide]	0.25 to 0.5 µM	1 to 5 µM
COc1ccc(N2CCN(c3nc4c([C@@H](C)Nc5ccc(Cl)nc5C(=O)NS(C)(=O)=O)cc(C)cc4c(=O)n3C)CC2)cn1 [Compound 635, (R)-6-chloro-3-((1-(2-(4-(6-methoxypyridin-3-yl)piperazin-1-yl)-3,6-dimethyl-4-oxo-3,4-dihydroquinazolin-8-yl)ethyl)amino)-N-(methylsulfonyl) picolinamide]	0.25 to 0.5 µM	1 to 5 µM
COc1ccc(N2C[C@@H]3C[C@H]2CN3c2nc3c([C@@H](C)Nc4ccc(Cl)nc4C(=O)NS(C)(=O)=O)cc(C)cc3c(=O)n2C)cn1 [Compound 636, 6-chloro-3-(((R)-1-(2-((1S,4S)-5-(6-methoxypyridin-3-yl)-2,5-diazabicyclo [2.2.1]heptan-2-yl)-3,6-dimethyl-4-oxo-3,4-dihydroquinazolin-8-yl)ethyl)amino)-N-(methylsulfonyl) picolinamide]	0.25 to 0.5 µM	≥ 5 µM
COc1cc(N2C[C@@H]3C[C@H]2CN3c2nc3c([C@@H](C)Nc4ccc(Cl)nc4C(=O)NS(C)(=O)=O)cc(C)cc3c(=O)n2C)ccn1 [Compound 637, 6-chloro-3-(((R)-1-(2-((1S,4S)-5-(2-methoxypyridin-4-yl)-2,5-diazabicyclo [2.2.1]heptan-2-yl)-3,6-dimethyl-4-oxo-3,4-dihydroquinazolin-8-yl)ethyl)amino)-N-(methylsulfonyl) picolinamide]	0.25 to 0.5 µM	≥ 5 µM
COc1ccc(N2C[C@H]3C[C@@H]2CN3c2nc3c([C@@H](C)Nc4ccc(Cl)nc4C(=O)NS(C)(=O)=O)cc(C)cc3c(=O)n2C)cn1 [Compound 638, 6-chloro-3-(((R)-1-(2-((1R,4R)-5-(6-methoxypyridin-3-yl)-2,5-diazabicyclo [2.2.1]heptan-2-yl)-3,6-dimethyl-4-oxo-3,4-dihydroquinazolin-8-yl)ethyl)amino)-N-(methylsulfonyl) picolinamide]	0.25 to 0.5 µM	≥ 5 µM

Results, then the compound that gave them:

IC50 [1]	IC50 [2]	Structure (SMILES)
0.25 to 0.5 µM	≥ 5 µM	Cc1cc([C@@H](C)Nc2ccc(Cl)nc2C(=O)NS(C)(=O)=O)c2nc(N3C[C@H]4C[C@@H]3CN4c3nccnc3C)n(C)c(=O)c2c1 [Compound 624, 6-chloro-3-(((R)-1-(3,6-dimethyl-2-((1R,4R)-5-(3-methylpyrazin-2-yl)-2,5-diazabicyclo [2.2.1]heptan-2-yl)-4-oxo-3,4-dihydroquinazolin-8-yl)ethyl)amino)-N-(methylsulfonyl) picolinamide]
0.25 to 0.5 µM	≥ 5 µM	Cc1cc([C@@H](C)Nc2ccc(Cl)nc2C(=O)NS(=O)(=O)C2COC2)c2nc(N3Cc4cn(-c5ccccc5C)nc4C3)n(C)c(=O)c2c1 [Compound 628, (R)-6-chloro-3-((1-(3,6-dimethyl-4-oxo-2-(2-(o-tolyl)-2,6-dihydropyrrolo[3,4-c]pyrazol-5(4H)-yl)-3,4-dihydroquinazolin-8-yl)ethyl)amino)-N-(oxetan-3-ylsulfonyl)picolinamide]
< 0.25 µM	≥ 5 µM	Cc1cc([C@@H](C)Nc2ccc(Cl)nc2C(=O)NS(C)(=O)=O)c2nc(N3CCN(c4cc(C)n(C)n4)CC3)n(C)c(=O)c2c1 [Compound 634, (R)-6-chloro-3-((1-(2-(4-(1,5-dimethyl-1H-pyrazol-3-yl)piperazin-1-yl)-3,6-dimethyl-4-oxo-3,4-dihydroquinazolin-8-yl)ethyl)amino)-N-(methylsulfonyl) picolinamide]
0.5 to 1 µM	≥ 5 µM	COc1cc(N2C[C@H]3C[C@@H]2CN3c2nc3c([C@@H](C)Nc4ccc(Cl)nc4C(=O)NS(C)(=O)=O)cc(C)cc3c(=O)n2C)ccn1 [Compound 639, 6-chloro-3-(((R)-1-(2-((1R,4R)-5-(2-methoxypyridin-4-yl)-2,5-diazabicyclo [2.2.1]heptan-2-yl)-3,6-dimethyl-4-oxo-3,4-dihydroquinazolin-8-yl)ethyl)amino)-N-(methylsulfonyl) picolinamide]
0.25 to 0.5 µM	≥ 5 µM	COc1cc(C2CCN(c3nc4c([C@@H](C)Nc5ccc(Cl)nc5C(=O)NS(C)(=O)=O)cc(C)cc4c(=O)n3C)CC2)ccn1 [Compound 640, (R)-6-chloro-3-((1-(2-(4-(2-methoxypyridin-4-yl)piperidin-1-yl)-3,6-dimethyl-4-oxo-3,4-dihydroquinazolin-8-yl)ethyl)amino)-N-(methylsulfonyl) picolinamide]
